From US5001123A, “2,5-diaryl tetrahydrofurans and analogs thereof as PAF antagonists” (Merck & Co., Inc., priority 1989, dated 1991)

System: PAF specific receptor binding site, human platelet membranes
Assay: inhibition of the binding of [3H] N-methylcarbamoyl-PAF to human platelet membranes
Conditions: trans configuration
Protocol: The compounds of formula (I) inhibit PAF induced functions in both the cellular and tissue levels by changing the PAF binding to its specific receptor site. The ability of a compound of formula (I) to inhibit the PAF binding to its specific receptor binding site on rabbit or human platelet or PMN plasma membranes was measured by a recently developed assay.
The inhibition of ^3 [H]-PAF or ^3 [H]N-methylcarbamoyl-PAF binding to the human or rabbit platelet or PMN plasma membrane by a PAF antagonist of formula (I) was determined by a method employing isotopic labeling and filtration techniques. Generally, a series of Tris buffered solutions of the selected antagonist at predetermined concentrations were prepared. […] Each washed residue was then suspended in 10 ml scintillation solution (Aquasol 2, New England Nuclear, Conn.) and the radioactivity was counted in a Packard Tri-Carb 460CD Liquid Scintillation System. Defining the counts from a test sample as "Total binding with antagonist"; the counts from the control sample C1, as "Total binding C1 "; and the counts from the control sample C2 as "non specific binding C2 ", the percent inhibition of each test antagonist can be determined by the following equations: [formula] […]

In the case of `CCCOc1c(OCC(O)CN2CCOCC2)cc([C@@H]2CC[C@@H](c3cnc(OC)c(OC)c3)O2)cc1S(=O)(=O)CC(C)O` (stereo partly drawn) [Example 3, trans-2-[3-(2-Hydroxypropyl)sulfonyl-4-n-propoxy-5-(3-1-morpholino-2-hydroxypropoxy)phenyl]-5-[5-(2,3-dimethoxy)pyridyl]tetrahydrofuran], the “% inhibition of the binding of [3H] Nmethylcarbamoyl-PAF to human platelet membranes” value (3 nM) is reported as 11% and the “% inhibition of the binding of [3H] Nmethylcarbamoyl-PAF to human platelet membranes” value (30 nM) is reported as 39%.
